We go through nine molecules from ChEMBL document CHEMBL3045206, “A facile synthesis of novel herbicidal 1-phenyl-piperazine-2,6-diones” (2005).

Holding throughout (format): functional
One test deals with Abutilon theophrasti. Nature of the test: Herbicidal activity against Abutilon theophrasti (velvetleaf) plant at 1200 g/ha applied as spray during post-emergence after 2 weeks under green house conditions.
In another test the test system is Solanum lycopersicum. Nature of the test: Herbicidal activity against Solanum lycopersicum (tomato) plant at 1200 g/ha applied as spray during post-emergence after 2 weeks under green house conditions.
Another test concerns Tagetes. In words: Herbicidal activity against Tagetes (marigold) plant at 1200 g/ha applied as spray during post-emergence after 2 weeks under green house conditions.

Take `O=C1CN2CCCCC2C(=O)N1c1cc(Cl)c(Cl)cc1F` (configuration not stated): the results for the Activity with Abutilon theophrasti, in the test on Solanum lycopersicum and in the test with Tagetes were 90%, 75% and 0%, respectively.

In the case of `O=C1CN2CCCCC2C(=O)N1c1ccc(Cl)cc1F` (configuration not stated), the Activity with Abutilon theophrasti was determined as 80%; with Solanum lycopersicum it was 35%; in the test with Tagetes it was 15%.

Regarding `COc1cc(N2C(=O)CN3CCCCC3C2=O)c(F)cc1Cl` (configuration not stated), the values for the Activity with Abutilon theophrasti, with Solanum lycopersicum and in the test on Tagetes were 50%, 15% and 0%, respectively.

Consider `O=C1CN2CCCCC2C(=O)N1c1cc(OC2CCCC2)c(Cl)cc1F` (configuration not stated), for which the Activity is given as 90% with Abutilon theophrasti, 60% in the test on Solanum lycopersicum and 10% with Tagetes.

Regarding `O=C1CN2CCCC2C(=O)N1c1cc(OC2CCCC2)c(Cl)cc1F` (configuration not stated), the Activity amounted to 50% in the test on Abutilon theophrasti, 0% with Solanum lycopersicum and 0% in the test on Tagetes.

As for `C#CCOc1cc(N2C(=O)CN(C)CC2=O)c(F)cc1Cl`, the Activity in the test on Abutilon theophrasti was 95%; in the test on Solanum lycopersicum it was 75%; in the test on Tagetes, 0%.

Turning to `CN1CC(=O)N(c2cc(OC3CCCC3)c(Cl)cc2F)C(=O)C1`, the Activity in the test with Abutilon theophrasti is 75%; in the test on Solanum lycopersicum, 0%; in the test with Tagetes it was 0%.

Turning to `CC(C)(C)N1CC(=O)N(c2cc(OC3CCCC3)c(Cl)cc2F)C(=O)C1`, the Activity in the test on Abutilon theophrasti stood at 25%; in the test on Solanum lycopersicum, 0%; in the test with Tagetes, 0%.

`CC(C)OC(=O)c1cc(N2C(=O)CN(Cc3ccccc3)CC2=O)c(F)cc1Cl`: the results for the Activity with Abutilon theophrasti, in the test with Solanum lycopersicum and in the test on Tagetes were 0%, 10% and 0%, respectively.
